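A five-concentration, 48-hour dose response in 96-well plates underlies each endpoint, interpolated linearly between surrounding concentrations. Here, GI50 denotes the concentration required for 50% inhibition of growth.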 Activity calls are given as the source filed them. Cut-off read from the data, not from the text of the source: active = GI50 up to about 1.1 µM and inactive = higher.
Assays:
Test in all cases: NCI-60 cell line screen, 48 h
IGROV-1 = test system: IGROV-1
SF-268 = test system: SF-268
NCI-H226 = test system: NCI-H226
DU-145 = test system: DU-145
Malme-3M = test system: Malme-3M
HOP-62 = test system: HOP-62
KM12 = test system: KM12
UO-31 = test system: UO-31
LOX IMVI = test system: LOX IMVI
HCT-116 = test system: HCT-116
RPMI-8226 = test system: RPMI-8226
RXF 393 = test system: RXF 393
UACC-62 = test system: UACC-62
NCI-H460 = test system: NCI-H460
786-0 = test system: 786-0
MDA-MB-435 = test system: MDA-MB-435
HCT-15 = test system: HCT-15
TK-10 = test system: TK-10
T47D = test system: T47D
OVCAR-5 = test system: OVCAR-5

Row | SMILES | GI50 (IGROV-1) | GI50 (SF-268) | GI50 (NCI-H226) | GI50 (DU-145) | GI50 (Malme-3M) | GI50 (HOP-62) | GI50 (KM12) | GI50 (UO-31) | GI50 (LOX IMVI) | GI50 (HCT-116) | GI50 (RPMI-8226) | GI50 (RXF 393) | GI50 (UACC-62) | GI50 (NCI-H460) | GI50 (786-0) | GI50 (MDA-MB-435) | GI50 (HCT-15) | GI50 (TK-10) | GI50 (T47D) | GI50 (OVCAR-5)
1 | CNC(=O)OCc1nc(SSC(C)(C)C)n(C)c1COC(=O)NC | 8.13 µM (inactive) | 6.75 µM (inactive) | 13.3 µM (inactive) | 19.1 µM (inactive) | 1.86 µM (inactive) | 12.8 µM (inactive) | 17.3 µM (inactive) | 9.02 µM (inactive) | 3.58 µM (inactive) | 1.72 µM (inactive) | 2.54 µM (inactive) | 1.45 µM (inactive) | 1.95 µM (inactive) | 10.7 µM (inactive) | 3.06 µM (inactive) | 4.83 µM (inactive) | 1.84 µM | 6.11 µM (inactive) | 2.81 µM (inactive) | 10.4 µM (inactive)
2 | Cc1nnc2ccccc2c1O | > 100 µM (inactive) | > 100 µM (inactive) | > 100 µM (inactive) | > 100 µM (inactive) | > 100 µM (inactive) | > 100 µM (inactive) | > 100 µM (inactive) | > 100 µM (inactive) | > 100 µM (inactive) | > 100 µM (inactive) | > 100 µM (inactive) | > 100 µM (inactive) | > 100 µM (inactive) | > 100 µM (inactive) | > 100 µM (inactive) | > 100 µM (inactive) | > 100 µM | > 100 µM (inactive) | > 100 µM (inactive) | > 100 µM (inactive)
3 | Cc1c(C)c(S(=O)(=O)N(CCCCCCN)OCCCN)c(C)c2c1OC(C)(C)CC2 | 2 µM (inactive) | 6.93 µM (inactive) | 5.37 µM (inactive) | 26.4 µM (inactive) | 2.15 µM (inactive) | 4.36 µM (inactive) | 1.91 µM (inactive) | 11.8 µM (inactive) | 2.4 µM (inactive) | 1.97 µM (inactive) | 4.39 µM (inactive) | 4.13 µM (inactive) | 11.4 µM (inactive) | 2.69 µM (inactive) | 3.22 µM (inactive) | 5.37 µM (inactive) | 15.1 µM | 14.3 µM (inactive) | 12.1 µM (inactive) | > 28.7 µM (inactive)
4 | CCc1ccc2c(c1)/C(=C1/Nc3ccccc3C1=O)C(=O)N2 | 0.124 µM (active) | 19.6 µM (inactive) | 18.7 µM (inactive) | 41.3 µM (inactive) | 35.4 µM (inactive) | 14.2 µM (inactive) | 0.428 µM (active) | 7.38 µM (inactive) | 50.7 µM (inactive) | 7.43 µM (inactive) | > 100 µM (inactive) | 15.1 µM (inactive) | 15.4 µM (inactive) | 23.3 µM (inactive) | 5.78 µM (inactive) | 25.5 µM (inactive) | 31.7 µM | 17 µM (inactive) | 4.65 µM (inactive) | 44.9 µM (inactive)
5 | O=C1C(Cl)C(c2cc3cc(Br)ccc3nc2Cl)N1c1ccc(Cl)cc1 (stereo not given) | 3.02 µM (inactive) | 4.51 µM (inactive) | 4.26 µM (inactive) | 6.95 µM (inactive) | 4.56 µM (inactive) | 9.68 µM (inactive) | 8.97 µM (inactive) | 0.815 µM (active) | 0.906 µM (active) | 5.31 µM (inactive) | 5.21 µM (inactive) | 5.13 µM (inactive) | 4.22 µM (inactive) | 6.59 µM (inactive) | 4.65 µM (inactive) | 5.82 µM (inactive) | 4.86 µM | 5.24 µM (inactive) | 6.65 µM (inactive) | 10.7 µM (inactive)
6 | O=C(Nc1ccc(Cl)cc1)c1cc(S(=O)(=O)Nc2n[nH]c(Nc3ccc4ccccc4c3)n2)c(SSc2cc(Cl)c(C(=O)Nc3ccc(Cl)cc3)cc2S(=O)(=O)Nc2n[nH]c(Nc3ccc4ccccc4c3)n2)cc1Cl | 21.7 µM (inactive) | 41.4 µM (inactive) | 21.7 µM (inactive) | 24.4 µM (inactive) | 21.6 µM (inactive) | 27.7 µM (inactive) | 20 µM (inactive) | 24.2 µM (inactive) | 17.5 µM (inactive) | 18.6 µM (inactive) | 22 µM (inactive) | 32.5 µM (inactive) | 22.9 µM (inactive) | 26.7 µM (inactive) | 31.2 µM (inactive) | 30.3 µM (inactive) | 21.7 µM | 27.3 µM (inactive) | 3.2 µM (inactive) | 20.5 µM (inactive)
7 | CN(C)CCCSc1nc2ccccc2[nH]1 | > 100 µM (inactive) | > 100 µM (inactive) | > 100 µM (inactive) | > 100 µM (inactive) | > 100 µM (inactive) | > 100 µM (inactive) | > 100 µM (inactive) | > 100 µM (inactive) | > 100 µM (inactive) | > 100 µM (inactive) | > 100 µM (inactive) | > 100 µM (inactive) | > 100 µM (inactive) | > 100 µM (inactive) | > 100 µM (inactive) | > 100 µM (inactive) | > 100 µM | > 100 µM (inactive) | > 100 µM (inactive) | > 100 µM (inactive)
8 | COc1ccc(-c2cc3c(c4cc(OC)ccc24)C(=O)OC3=O)cc1 | > 100 µM (inactive) | > 100 µM (inactive) | > 100 µM (inactive) | > 100 µM (inactive) | > 100 µM (inactive) | > 100 µM (inactive) | > 100 µM (inactive) | 95.5 µM (inactive) | > 100 µM (inactive) | > 100 µM (inactive) | > 100 µM (inactive) | > 100 µM (inactive) | > 100 µM (inactive) | > 100 µM (inactive) | > 100 µM (inactive) | 68.4 µM (inactive) | > 100 µM | > 100 µM (inactive) | > 100 µM (inactive) | > 100 µM (inactive)
9 | CN(C)CC1CN(C(=O)Nc2ccccc2)C(=N)O1 (stereo not given) | > 100 µM (inactive) | > 100 µM (inactive) | > 100 µM (inactive) | 38.2 µM (inactive) | > 100 µM (inactive) | > 100 µM (inactive) | > 100 µM (inactive) | > 100 µM (inactive) | > 100 µM (inactive) | > 100 µM (inactive) | > 100 µM (inactive) | > 100 µM (inactive) | > 100 µM (inactive) | > 100 µM (inactive) | > 100 µM (inactive) | > 100 µM (inactive) | > 100 µM | > 100 µM (inactive) | > 100 µM (inactive) | > 100 µM (inactive)
10 | COC(=O)c1c(C)cccc1C1CN=NC12Cc1ccc(C)cc1C2=O (stereo not given) | 52 µM (inactive) | 50.7 µM (inactive) | 44.4 µM (inactive) | 49 µM (inactive) | 33.2 µM (inactive) | 52.7 µM (inactive) | 47.9 µM (inactive) | 36.1 µM (inactive) | 28.6 µM (inactive) | 25 µM (inactive) | 25.6 µM (inactive) | 75.9 µM (inactive) | 32.6 µM (inactive) | 15 µM (inactive) | 71.3 µM (inactive) | 32.7 µM (inactive) | 50.2 µM | > 100 µM (inactive) | 17.1 µM (inactive) | > 100 µM (inactive)
11 | CCOC(=O)CCC(C(=O)OCC)n1nnc2cc(Nc3c(C)[n+]([O-])c4cc(Cl)ccc4[n+]3[O-])ccc21 (stereo not given) | > 100 µM (inactive) | 38.4 µM (inactive) | 32.9 µM (inactive) | > 100 µM (inactive) | > 100 µM (inactive) | 46.8 µM (inactive) | > 100 µM (inactive) | 72.6 µM (inactive) | 69.2 µM (inactive) | 47.9 µM (inactive) | 37.2 µM (inactive) | 53.6 µM (inactive) | 55.7 µM (inactive) | 48.3 µM (inactive) | 59.2 µM (inactive) | > 100 µM (inactive) | 43.9 µM | > 100 µM (inactive) | 47.2 µM (inactive) | 62.8 µM (inactive)
12 | O=C(O)C1=C(C(=O)O)N(c2ccncc2)C(c2ccco2)=CC1c1ccccc1[N+](=O)[O-] (stereo not given) | 1.85 µM (inactive) | 13.1 µM (inactive) | 9.59 µM (inactive) | 12.1 µM (inactive) | 0.925 µM (active) | 13.4 µM (inactive) | 1.62 µM (inactive) | 8.26 µM (inactive) | 2.01 µM (inactive) | 1.83 µM (inactive) | 2.79 µM (inactive) | 7.94 µM (inactive) | 15.3 µM (inactive) | 12.6 µM (inactive) | 2.04 µM (inactive) | 13.5 µM (inactive) | 1.81 µM | 6.01 µM (inactive) | 7.82 µM (inactive) | 15 µM (inactive)
13 | CC(O)(C(=O)N(O)c1ccc(Cl)cc1)c1ccc(Cl)cc1 (stereo not given) | 19.9 µM (inactive) | 23.7 µM (inactive) | 40.6 µM (inactive) | 34.4 µM (inactive) | 28.1 µM (inactive) | 26.7 µM (inactive) | 12.8 µM (inactive) | 26.1 µM (inactive) | 24.4 µM (inactive) | 28.4 µM (inactive) | 11.2 µM (inactive) | 26.8 µM (inactive) | 31.9 µM (inactive) | 34.2 µM (inactive) | 28.8 µM (inactive) | 24.7 µM (inactive) | 19.2 µM | 29.7 µM (inactive) | 31.6 µM (inactive) | 37.9 µM (inactive)
14 | CC(=O)O[C@H]1C[C@]2(O)[C@@H]3CC[C@@H]4C[C@@H](O)CC[C@]4(C)[C@H]3CC[C@]2(C)[C@H]1C1=CC(=O)OC1 | 0.103 µM (active) | 0.0429 µM (active) | 0.288 µM (active) | 0.0316 µM (active) | 0.036 µM (active) | 0.0493 µM (active) | 0.398 µM (active) | 0.0632 µM (active) | 0.0585 µM (active) | 0.033 µM (active) | 0.0982 µM (active) | 0.0324 µM (active) | 0.211 µM (active) | 0.0289 µM (active) | 0.0455 µM (active) | 0.179 µM (active) | 0.0843 µM | 0.0796 µM (active) | 0.222 µM (active) | 0.182 µM (active)
